The structures appear in SMILES notation.

For this assay, the system named is human skin cells (HEKn keratinocytes). Nature of the assay: Urban Dust induced lipid peroxidation. Type of assay: cell-based. To be noted: after 4 hours, test sample 5%. On the procedure:
A third-party testing facility conducted tests to determine the effects of standardized Urban Dust particulates (NIST® SRM® 1649b) on the production of free radicals and lipid peroxidation in human skin cells (HEKn keratinocytes). Tests were conducted at 1 hour, 2 hours and 3 hours with varying concentrations of the test samples (1%, 3%, and 5%) (i.e. at one hour intervals) to measure intracellular reactive oxygen species and after 4 hours with test sample (5%) for lipid peroxidation. A fluorescent plate reader was utilized to measure a fluorescent dye incubated in all test conditions which measures intracellular reactive oxygen species and lipid peroxidation. The measurement is expressed as the mean relative fluorescent unit (RFU). FIG. 4B illustrates by bar graph the effects of the Urban Dust on tissue. Non-exposed tissue has immeasurably low RFU. The urban dust exposed cells have an increase in lipid peroxidation with 0.2 RFU.

Regarding `Cc1c(C)c2c(c(C)c1O)CCC(C)(C(=O)O)O2` (centres unmarked) [Trolox], under “exposed to Urban Dust, Urban Dust alone 0.2 RFU”, the “Lipid peroxidation (mean RFU)” value is on record as “about 0.05 RFU”. For the setting “vs Urban Dust exposed cells”, the “Reduction in lipid peroxidation” value is reported as 67%.

The values above are taken from patent US20200237626A1, “Anti-Aging Corrective and Protective Formulation and Methods” (JAMRM, LLC, priority 2019, published 2020).
